Test results from US20090298757A1, “OXYNTOMODULIN ANALOGUES AND THEIR EFFECTS ON FEEDING BEHAVIOUR” (Imperial Innovations Limited, priority 2005, published 2009).
Entries after “also recorded” stand apart in the source; their conditions may differ. Non-standard residues stand in square brackets, D forms with d. No end group written: not given here. *: point of attachment. Lauroyl = CCCCCCCCCCCC(=O)*

Tested on: C57BL/6 mice
Test: Food intake in fasted mice after injection of peptide
Type: in vivo, mouse
Settings: for Multiples of food inhibition Factor: Example 9, food intake during the first hour after injection, activity relative to oxm (1400 nmol/kg); for potency relative to oxyntomodulin: as mentioned in the examples section, times that of oxyntomodulin
Description: Animals. All animal procedures were approved by the British Home Office Animals (Scientific Procedures) Act 1986 (Project License number 70/5516). Male C57BL/6 mice and male Wistar rats were maintained in individual cages under controlled temperature (21-23° C.) with ad libitum access to standard chow (RM1 diet, SDS Ltd, Witham, Essex, UK) and to water. The light cycle was 14 hours light and 10 hours dark with ‘dawn’ at 07:00, lights full on at 07:30, ‘dusk’ at 21:00 with lights off at 21:30. These times were fixed in the animal facility.
All animals were handled almost daily for on average nine days prior to the first study. During the acclimatization period, each animal received two saline injections at least two days apart in order to further acclimatize to the procedure on the study days.
Intra-peritoneal (IP) injections. IP injections were administered to mice via a 0.5 ml syringe with a 29-gauge needle (maximum injection volume 0.1 ml). Maximum volume administered IP was 0.1 ml.
Study protocol: C57BL/6 mice (20-35 g) were injected with the peptide under investigation following a 20-hour fast. Wistar rats were injected following a 24-hour fast. A pre-weighed quantity of chow was presented immediately after injection. The remaining food was measured at regular time intervals (e.g. 1, 2, 3, 4, 6, 8, 24 and 48 hours following injection) and food intake calculated.

[1] = Example 6, mice, 2700 nmol/kg, 0-8 h
[2] = Example 7, mice, 1000 nmol/kg, 0-24 h
[3] = Example 11, mice, 100 nmol/kg, vs oxm(xx15-24)
[4] = Example 1, fasted mice, 2700 nmol/kg by injection, intervals up to 32 h, vs saline and oxm
[5] = Example 57, mice, 6 or 20 nmol/kg, vs saline

Ala2-oxm: oxm with Ser at residue 2 substituted by Ala (HAQGTFTSDYSKYLDSRRAQDFVQWLMNTKRNRNNIA; Oxyntomodulin; UniProt P01275 53-89, looked up, variant S2A)
food intake (Example 5, fasted mice, 2700 nmol/kg, 0-4 h, vs saline and oxm): does NOT significantly reduce food intake compared to saline

His Ser Gln Gly Thr Phe Thr Ser Asp Tyr Ser Lys Tyr Leu Glu Glu Glu Ala Val Arg Leu Phe Ile Glu Trp Leu Lys Asn Gly Gly Pro Ser Ser Gly Ala Pro Pro Pro Ser [oxm(xx15-39)]
food intake [1]: potent and long-lasting effect on food intake
food intake [2]: significantly inhibit feeding both compared to saline control and compared to the oxm-treated group

HSQGTFTSDYSKYLEEEAIRLFIEWLMNTKRNRNNIA [Ile19-oxm(xx15-24)]
potency on food intake (Example 11, mice, 100 nmol/kg, 0-24 h, vs oxm(xx15-24)): equipotent with or slightly more potent than oxm(xx15-24)
onset and duration of activity on food intake [3]: slightly delayed action as compared with oxm (xx15-24)
onset and duration of activity on food intake (Example 11, mice, 100 nmol/kg, vs oxm(xx15-24), listed as SEQ ID NO: 34): delayed onset

HSQGTFTSDYSKYLEEEAVRLFIEWLMNTKRNRNNIA [oxm(xx15-24)]
food intake [4]: greater and more prolonged appetite suppressant effect; also recorded: more potent effect on feeding than oxm
cumulative food intake (Example 2, mice, 300 nmol/kg, first 8 hours post-injection (FIG. 4c)): reduces food intake only slightly less than exendin over the first 8 hours post-injection
Multiples of food inhibition Factor (mice): 400
food intake (Example 27, mice, 100 nmol/kg): most effective
potency relative to oxyntomodulin: 400 times

HSQGTFTSDYSKYLEEEVVRLFIEWLMNTKRNRNNIA [18Val-oxm(xx15-24)]
onset and duration of activity on food intake [3]: delayed onset of activity as compared with oxm(xx15-24) whilst the activity is more prolonged
onset and duration of activity on food intake (Example 11, mice, 100 nmol/kg, vs oxm(xx15-24), listed as SEQ ID NO: 31): delayed onset

D-His Ser Gln Gly Thr Phe Thr Ser Asp Tyr Ser Lys Tyr Leu Asp Ser Arg Arg Ala Gln Asp Phe Val Gln Trp Leu Lys Asn Gly Gly Pro Ser Ser Gly Ala Pro Pro Pro Ser ([dH]SQGTFTSDYSKYLDSRRAQDFVQWLKNGGPSSGAPPPS) [D-His-oxm26ex]
cumulative food intake (Example 13, mice, 1000 nmol/kg (FIG. 21d)): reduction in food intake in comparison to oxm26ex

His Ser Gln Gly Thr Phe Thr Ser Asp Tyr Ser Lys Tyr Leu Asp Ser Arg Arg Ala Gln Asp Phe Val Gln Trp Leu Lys Asn Gly Gly Pro Asn Ser Asn Asn Ile Ala (HSQGTFTSDYSKYLDSRRAQDFVQWLKNGGPNSNNIA; Asn32-oxm(ex27-33))
food intake (Example 31, mice, 300 nmol/kg, vs oxm(ex27-33)): reduces the effect of oxm(ex27-33) on food intake

Des-His-oxm: oxm analogue with substitution of the first amino acid (His 1) (SQGTFTSDYSKYLDSRRAQDFVQWLMNTKRNRNNIA; Oxyntomodulin; UniProt P01275 53-89, looked up, variant H1*)
food intake (Example 12, fasted mice, 2700 nmol/kg, 0-4 h): reduced food intake
duration of action on food intake (Example 12, fasted mice, 2700 nmol/kg, vs native oxm): more sustained action than native oxm

His Ser Gln Gly Thr Phe Thr Ser Asp Tyr Ser Lys Tyr Leu Asp Ser Arg Arg Ala Gln Asp Phe Val Gln Trp Leu Arg Asn Gly Gly Pro Ser Ser Asn Asn Ile Ala (HSQGTFTSDYSKYLDSRRAQDFVQWLRNGGPSSNNIA; Arg27-oxm(ex27-33))
food intake (Example 17, mice, 300 nmol/kg): reduction in food intake from 0 to 1 hours
food intake (Example 30, mice, 1400 or 300 nmol/kg, vs oxm(ex27-33)): reduce the effect of oxm(ex27-33) on food intake

CH3—CO—NH—CRH—CO-Ser Gln Gly Thr Phe Thr Ser Asp Tyr Ser Lys Tyr Leu Asp Ser Arg Arg Ala Gln Asp Phe Val Gln Trp Leu Met Asn Thr Lys Arg Asn Arg Asn Asn Ile Ala [Acetyloxyntomodulin]
onset of anorectic effect (Example 14, mice, 1400 mmol/kg (so in the source)): later acting than that of oxyntomodulin

His Ser Gln Gly Thr Phe Thr Ser Asp Tyr Ser Lys Tyr Leu Asp Ser Arg Arg Ala Gln Asp Phe Val Gln Trp Leu Lys Asn Gly Gly Pro Ser Ser Asn Asn Ile Ala (HSQGTFTSDYSKYLDSRRAQDFVQWLKNGGPSSNNIA; Oxm Analogue) [oxm(xx27-33)]
food intake (Example 3, mice, 2700 nmol/kg, vs saline and oxm): increased and prolonged inhibition of food intake compared to both saline and oxm
Multiples of food inhibition Factor (mice): 7

HSQGTFTSDYSKYLEEEVVRLFVQWLMNTKRNRNNIA
food intake (Example 16, mice, 30 nmol/kg): reduction in food intake from 0 to 2 hours

HSQGTFTSDYSKYLEEEAAQDFVQWLMNTKRNRNNIA [oxm(xx15-18)]
food intake [4]: increased and prolonged inhibition of food intake compared to both saline and oxm

D-His Ala Gln Gly Thr Phe Thr Ser Asp Tyr Ser Lys Tyr Leu Asp Ser Arg Arg Ala Gln Asp Phe Val Gln Trp Leu Met Asn Thr Lys Arg Asn Arg Asn Asn Ile Ala (XAQGTFTSDYSKYLDSRRAQDFVQWLMNTKRNRNNIA; D-His at position 1; Oxm Analogue; D-His) [D-His-Ala2-oxm]
Multiples of food inhibition Factor (mice): 2.5
minimum effective dose (Example 43, mice, food intake): approximately 250 nmol/kg
effectiveness on food intake (Example 43, mice, various doses, vs oxm): more effective than oxm

HSQGTFTSDYSKYLDSRRAQDFVQWLKNGGPSSGAPPPS [oxm26ex]
food intake [1]: potent and long-lasting effect on food intake
food intake [2]: significantly inhibit feeding both compared to saline control and compared to the oxm-treated group
duration of effect on food intake (Example 7, mice, 1000 nmol/kg, vs exendin): not as long-lasting as those of exendin

D-His Ser Asp Gly Thr Phe Thr Ser Asp Tyr Ser Lys Tyr Leu Glu Glu Glu Val Val Arg Leu Phe Ile Gln Trp Leu Lys Asn Gly Gly Pro Ser Lys Asn Asn Ile Ala Ala Ala Glu Glu Lys-Lauroyl ([dH]SDGTFTSDYSKYLEEEVVRLFIQWLKNGGPSKNNIAAAEEK(Lauroyl))
cumulative food intake [5]: markedly decreased cumulative food intake in comparison to the saline control

HSQGTFTSDYSKYLEEEAVRLFVQWLMNTKRNRNNIA [oxm(xx15-21)]
food intake [4]: greater and more prolonged appetite suppressant effect
Multiples of food inhibition Factor (mice): 200
potency relative to oxyntomodulin: 200 times

D-His Ala Gln Gly Thr Phe Thr Ser Asp Tyr Ser Lys Tyr Leu Glu Glu Glu Ala Val Arg Leu Phe Ile Glu Trp Leu Lys Asn Gly Gly Pro Ser Ser Asn Asn Ile Ala ([dH]AQGTFTSDYSKYLEEEAVRLFIEWLKNGGPSSNNIA) [D-His1-Ala2-oxm(xx15-24)(xx27-33)]
duration of effect on food intake (Example 8, mice, 100 mmol/kg (so in the source)): especially long-acting
Multiples of food inhibition Factor (mice): 1000-4000
potency relative to oxyntomodulin: 1-4000 times

D-Ser Ala Asp Gly Thr Phe Thr Ser Asp Tyr Ser Lys Tyr Leu Glu Glu Glu Ala Val Arg Leu Phe Ile Gln Trp Leu Lys Asn Gly Gly Pro Ser Lys Asn Asn Ile Ala Ala Ala Glu Glu Lys-Lauroyl
cumulative food intake [5]: markedly decreased cumulative food intake in comparison to the saline control
